Common to all, as to type: cell-based
Test [1] addresses T1, glucocorticoid receptor (Homo sapiens, UniProt P04150).
T1 construct: A549 cells stably transfected with a reporter gene; endogenous in cells; host or cells: A549 cells
T1 sequence (P04150 1-777): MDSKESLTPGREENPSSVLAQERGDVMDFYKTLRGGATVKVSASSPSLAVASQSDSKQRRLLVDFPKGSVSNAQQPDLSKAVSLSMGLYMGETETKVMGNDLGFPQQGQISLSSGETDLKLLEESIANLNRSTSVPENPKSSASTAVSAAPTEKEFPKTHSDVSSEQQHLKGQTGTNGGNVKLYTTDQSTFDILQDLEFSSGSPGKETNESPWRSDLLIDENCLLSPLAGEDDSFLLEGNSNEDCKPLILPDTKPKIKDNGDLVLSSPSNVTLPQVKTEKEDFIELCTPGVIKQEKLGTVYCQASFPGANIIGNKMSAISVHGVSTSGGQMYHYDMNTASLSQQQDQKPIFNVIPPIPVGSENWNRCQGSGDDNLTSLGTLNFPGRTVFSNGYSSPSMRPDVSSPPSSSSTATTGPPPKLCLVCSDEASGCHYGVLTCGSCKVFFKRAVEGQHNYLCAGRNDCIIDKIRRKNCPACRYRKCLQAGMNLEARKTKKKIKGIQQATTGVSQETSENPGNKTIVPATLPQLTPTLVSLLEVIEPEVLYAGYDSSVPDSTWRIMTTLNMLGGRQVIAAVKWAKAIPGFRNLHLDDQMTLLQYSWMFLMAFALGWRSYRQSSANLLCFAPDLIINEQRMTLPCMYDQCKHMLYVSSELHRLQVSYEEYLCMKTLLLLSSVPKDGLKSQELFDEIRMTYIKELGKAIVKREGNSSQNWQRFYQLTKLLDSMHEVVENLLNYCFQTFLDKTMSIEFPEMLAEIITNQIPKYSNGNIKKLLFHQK
Description: Assay for transrepression activity of the glucocorticoid agonists (NF-κB responsive ELAM promoter-sPAP reporter, TNF-stimulated A549 cells). To be noted: compound 1 hour at 37° C., then TNF 10 ng/ml for 16 hours, read-out: pIC50 (transrepression) (converted). The procedure:
Assay for Transrepression Activity of the Glucocorticoid Agonists
A549 cells stably transfected with a reporter gene containing the NF-κB responsive elements from the ELAM gene promoter coupled to sPAP (secreted alkaline phosphatase) are treated with test compounds at appropriate doses for 1 hour at 37° C. The cells are then stimulated with tumour necrosis factor (TNF, 10 ng/ml) for 16 hours, at which time the amount of alkaline phosphatase produced is measured by a standard colourimetric assay. Dose response curves were constructed from which EC50 values were estimated.

In test [2] the target is T1, glucocorticoid receptor. Description: Assay for transactivation activity of the glucocorticoid agonists (MMTV-LTR renilla luciferase reporter in A549 cells). To be noted: compound 6 hour at 37° C., read-out: maximal response relative to Dexamethasone (100%) (transactivation). Background: Reporter assays use an easily measured gene product as a stand-in for the process of interest.

The target of test [3] is T2, Progesterone Receptor (Homo sapiens, UniProt P06401).
T2 construct: expressed in transfected cells; host or cells: CV-1 cells transduced with PRb-BacMam
T2 sequence (P06401 1-933): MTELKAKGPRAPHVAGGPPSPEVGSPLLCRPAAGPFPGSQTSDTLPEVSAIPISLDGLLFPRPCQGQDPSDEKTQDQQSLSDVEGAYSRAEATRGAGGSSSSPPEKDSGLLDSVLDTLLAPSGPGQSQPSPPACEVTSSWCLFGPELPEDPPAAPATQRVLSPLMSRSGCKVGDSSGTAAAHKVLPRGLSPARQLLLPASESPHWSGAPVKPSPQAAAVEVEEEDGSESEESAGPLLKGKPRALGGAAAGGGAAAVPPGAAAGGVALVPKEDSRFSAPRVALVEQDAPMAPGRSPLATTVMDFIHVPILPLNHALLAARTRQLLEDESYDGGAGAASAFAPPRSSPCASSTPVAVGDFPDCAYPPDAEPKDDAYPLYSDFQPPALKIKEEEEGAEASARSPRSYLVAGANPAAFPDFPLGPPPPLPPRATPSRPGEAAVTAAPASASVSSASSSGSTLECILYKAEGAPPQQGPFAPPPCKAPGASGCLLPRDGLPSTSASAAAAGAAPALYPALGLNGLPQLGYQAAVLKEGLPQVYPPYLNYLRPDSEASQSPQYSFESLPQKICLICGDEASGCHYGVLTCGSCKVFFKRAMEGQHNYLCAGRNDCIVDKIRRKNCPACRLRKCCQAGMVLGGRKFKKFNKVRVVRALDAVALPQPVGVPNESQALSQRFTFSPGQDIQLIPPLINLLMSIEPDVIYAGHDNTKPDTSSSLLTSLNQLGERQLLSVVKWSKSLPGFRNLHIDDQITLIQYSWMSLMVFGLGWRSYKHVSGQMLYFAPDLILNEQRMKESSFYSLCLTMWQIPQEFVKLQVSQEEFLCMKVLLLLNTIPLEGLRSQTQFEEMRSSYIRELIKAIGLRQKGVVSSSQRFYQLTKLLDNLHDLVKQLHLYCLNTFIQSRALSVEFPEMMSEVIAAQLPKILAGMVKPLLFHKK
Put plainly: Assay for progesterone receptor activity (CV-1 cells transduced with PRb-BacMam and MMTV-BacMam, Steady Glo). Conditions: 24 h, read-out: pEC50 (progesterone receptor) (converted). Here is the method:
Assay for Progesterone Receptor Activity
Cells were diluted in DMEM containing 10% Hyclone, 2 mM […] and 1% Pen/Strep at 140 cells/μl and transduced with 10% PRb-BacMam and 10% MMTV-BacMam. […] of suspension cells were dispensed to each well of white Nunc 384-well plates, containing compounds at the required concentration. After 24 h 10 μl of Steady Glo were added to each well of the plates. Plates were incubated in the dark for 10 min before reading them on a Viewlux reader. Dose response curves were constructed from which pEC50 values were estimated.

The values that follow come from US20080249077A1, “17.Beta.-Fluoromethoxycarbonyl-Androst-4-En-3-One Compounds With a 17.Alpha.-Carbonate Sustituent” (priority 2005, published 2008).

Bounds are passed on as bounds.

`CCC(OC(=O)O[C@]1(C(=O)OCF)[C@H](C)C[C@H]2[C@@H]3C[C@H](F)C4=CC(=O)C=C[C@]4(C)[C@@]3(F)[C@@H](O)C[C@@]21C)C(C)C` (stereo partly drawn) [Example 8, Fluoromethyl(6α,11β,16α,17α)-17-({[(1-ethyl-2-methylpropyl)oxy]carbonyl}oxy)-6,9-difluoro-11-hydroxy-16-methyl-3-oxoandrosta-1,4-diene-17-carboxylate]: the IC50 in test [1] was below 0.1 nM. The Emax in test [2] was below 25%. The EC50 in test [3] was above 10 nM.
As to `C[C@@H]1[C@H]2C[C@@H](C[C@H]1OC(=O)O[C@]1(C(=O)OCF)[C@H](C)C[C@H]3[C@@H]4C[C@H](F)C5=CC(=O)C=C[C@]5(C)[C@@]4(F)[C@@H](O)C[C@@]31C)C2(C)C` [Example 34, Fluoromethyl(6α,11β,16α,17α)-6,9-difluoro-11-hydroxy-16-methyl-3-oxo-17-[({[(1R,2R,3R,5S)-2,6,6-trimethylbicyclo[3.1.1]hept-3-yl]oxy}carbonyl)oxy]androsta-1,4-diene-17-carboxylate], in test [2], the Emax is below 25%. For the same compound, in test [3], the EC50 is above 10 nM.
In the same order, the values of `CC(C)[C@H]1CC[C@H](C)C[C@@H]1OC(=O)O[C@]1(C(=O)OCF)[C@H](C)C[C@H]2[C@@H]3C[C@H](F)C4=CC(=O)C=C[C@]4(C)[C@@]3(F)[C@@H](O)C[C@@]21C` [Example 32, Fluoromethyl(6α,11β,16α,17α)-6,9-difluoro-11-hydroxy-16-methyl-17-[({[(1 S,2R,5S)-5-methyl-2-(1-methylethyl)cyclohexyl]oxy}carbonyl)oxy]-3-oxoandrosta-1,4-diene-17-carboxylate] are below 25% and above 10 nM.
For `C[C@@H]1C[C@H]2[C@@H]3C[C@H](F)C4=CC(=O)C=C[C@]4(C)[C@@]3(F)[C@@H](O)C[C@]2(C)[C@@]1(OC(=O)O[C@@H]1[C@@H]2CC[C@@H](C2)C1(C)C)C(=O)OCF` [Example 30, Fluoromethyl(6α,11β,16α,17α)-17-[({[(1R,2R,4S)-3,3-dimethylbicyclo[2.2.1]hept-2-yl]oxy}carbonyl)oxy]-6,9-difluoro-11-hydroxy-16-methyl-3-oxoandrosta-1,4-diene-17-carboxylate], in test [1], the IC50 is below 0.1 nM. The Emax in test [2] is below 25%. The EC50 in test [3] was above 10 nM.
Consider `CCC(OC(=O)O[C@]1(C(=O)OCF)[C@H](C)C[C@H]2[C@@H]3C[C@H](F)C4=CC(=O)C=C[C@]4(C)[C@@]3(F)[C@@H](O)C[C@@]21C)C(C)(C)C` (stereo partly drawn) [Example 38, Fluoromethyl(6α,11β,16α,17α)-17-({[(1-ethyl-2,2-dimethylpropyl)oxy]carbonyl}oxy)-6,9-difluoro-11-hydroxy-16-methyl-3-oxoandrosta-1,4-diene-17-carboxylate], for which, in test [2], the Emax is below 25%. Besides, in test [3], the EC50 was above 10 nM.
`CCC(C)(C)OC(=O)O[C@]1(C(=O)OCF)[C@H](C)C[C@H]2[C@@H]3C[C@H](F)C4=CC(=O)C=C[C@]4(C)[C@@]3(F)[C@@H](O)C[C@@]21C` [Example 2, Fluoromethyl(6α,11β,16α,17α)-17-({[(1,1-dimethylpropyl)oxy]carbonyl}oxy)-6,9-difluoro-11-hydroxy-16-methyl-3-oxoandrosta-1,4-diene-17-carboxylate]: the IC50 in test [1] was below 0.1 nM. For the same compound, the EC50 in test [3] was above 10 nM.
Turning to `C[C@@H]1C[C@H]2[C@@H]3C[C@H](F)C4=CC(=O)C=C[C@]4(C)[C@@]3(F)[C@@H](O)C[C@]2(C)[C@@]1(OC(=O)OC1CCCCCC1)C(=O)OCF` [Example 14, Fluoromethyl(6α,11β,16α,17α)-17-{[(cycloheptyloxy)carbonyl]oxy}-6,9-difluoro-11-hydroxy-16-methyl-3-oxoandrosta-1,4-diene-17-carboxylate], in test [2], the Emax was below 25%. In addition, the EC50 in test [3] is above 10 nM.
